{"source": "patent US8293481B2", "about": "“Biomarkers for chronic vascular dysfunction” (Mayo Foundation for Medical Education and Research, priority 2006, dated 2012)", "key": {"[1]": {"tested_on": "Sprague-Dawley rats, LAD ligation infarct model of CHF", "assay": "Left ventricular function by transthoracic echocardiography (fractional shortening) in rat infarct model of CHF", "type": "in vivo", "conditions": "2 weeks post-infarction; captopril 2 g/l in drinking water; uninfarcted 56%, placebo 29%", "description": "(§1) After intubation, rats were ventilated continuously (room air) using a small animal ventilator (Model 683, Harvard Apparatus, Holliston, Mass.). A left lateral thoracotomy incision was made along the 5th intercostal space and after the pericardium was opened, the heart was exteriorized using a retention suture placed at the apex. The left anterior descending coronary artery (LAD) was ligated twice using 6-0 prolene suture (Ethicon, Cornelia, Ga.). After chest closure with running 3-0 vicryl suture (Ethicon), rats were put in a recovery chamber with a heating pad and warming light. The post-operative survival rate reached 80%. […] Rats were fed a standard diet of Teklad rodent feed (Harlan) ad libitum and kept on a 12:12 h light-dark cycle. Rats were sacrificed at designated time intervals of 2 weeks and 4 weeks after surgery. […] Cardiac function was estimated using fractional shortening (FS) obtained from the EDD and ESD in the parasternal long axis view and calculated as FS=((EDD-ESD)/EDD)×100%."}, "[2]": {"tested_on": "aortic smooth muscle strips", "assay": "Dose-response relationship to 8-Br-cGMP, relaxation of aortic smooth muscle strips from treated rats", "type": "in vivo, rat", "conditions": "post-infarct animals treated with captopril, at both 2 and 4 weeks; P>0.05", "description": "as §1, with “Determination of the dose-response relationship to cGMP: Aortic smooth muscle strips were isolated” for “Cardiac function was estimated using fractional shortening (FS) obtained”, “rats” for “the EDD and ESD”, “uninfarcted control group without treatment” for “parasternal long axis view”, “from both placebo” for “calculated”, “well as captopril treated group at 2 weeks and 4 weeks post-LAD ligation to determine the dose-response relationship to cGMP. […] After the force reached a steady state, the dose-response relationship to 8-Br-cGMP (Calbiochem, San Diego, Calif.) was determined.” for “FS=((EDD-ESD)/EDD)×100%.”"}}, "data": [{"smiles": "C[C@H](CS)C(=O)N1CCC[C@H]1C(=O)O", "note": "[Captopril, 1-[(2S)-3-mercapto-2-methylpropionyl]-L-proline]", "values": [{"measurement": "fractional shortening (FS)", "setting": "[1]", "result": 38, "unit": "%"}, {"measurement": "sensitivity of cGMP-mediated relaxation versus uninfarcted control aorta", "setting": "[2]", "result": "not different"}]}]}
